Tests used:
[1] = target: T1, HiBit-BRG1 (Homo sapiens, UniProt P51532); test: HiBit-BRG1 cell-based degradation assay (Nano-Glo HiBiT Lytic Detection); conditions: HeLa cells expressing HiBit-BRG1 and LgBit, 24 h; for DC50: read-out: BRG1 HiBit Degradation IC50; for Dmax: read-out: BRG1 HiBit Degradation Maximum (%)
T1 construct: expressed in transfected cells
Method in brief: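 Seed 5000 HeLa HiBit-BRG1/LgBit cells per well; treat 24 h; equilibrate 15 min at room temperature; add Nano-Glo HiBiT lytic reagent, shake 10 min, read luminescence. Percent degradation is scaled between DMSO and 2 μM reference degrader wells.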

[2] = target: T2, HiBiT-BRM (Homo sapiens, UniProt P51531); test: HiBiT-BRM cell-based degradation assay (Nano-Glo HiBiT Lytic Detection); conditions: HeLa cells expressing HiBiT-BRM, 24 h; for DC50: read-out: BRM HiBit Degradation IC50
T2 construct: expressed in transfected cells
Method in brief: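 HeLa cells stably expressing HiBiT-tagged BRM were treated for 24 h, then lysed with LgBiT-containing Nano-Glo reagent and luminescence read. % degradation scaled between DMSO (high control) and 2 μM reference BRM/BRG1 degrader (low control).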

T1 sequence (P51532 whole entry): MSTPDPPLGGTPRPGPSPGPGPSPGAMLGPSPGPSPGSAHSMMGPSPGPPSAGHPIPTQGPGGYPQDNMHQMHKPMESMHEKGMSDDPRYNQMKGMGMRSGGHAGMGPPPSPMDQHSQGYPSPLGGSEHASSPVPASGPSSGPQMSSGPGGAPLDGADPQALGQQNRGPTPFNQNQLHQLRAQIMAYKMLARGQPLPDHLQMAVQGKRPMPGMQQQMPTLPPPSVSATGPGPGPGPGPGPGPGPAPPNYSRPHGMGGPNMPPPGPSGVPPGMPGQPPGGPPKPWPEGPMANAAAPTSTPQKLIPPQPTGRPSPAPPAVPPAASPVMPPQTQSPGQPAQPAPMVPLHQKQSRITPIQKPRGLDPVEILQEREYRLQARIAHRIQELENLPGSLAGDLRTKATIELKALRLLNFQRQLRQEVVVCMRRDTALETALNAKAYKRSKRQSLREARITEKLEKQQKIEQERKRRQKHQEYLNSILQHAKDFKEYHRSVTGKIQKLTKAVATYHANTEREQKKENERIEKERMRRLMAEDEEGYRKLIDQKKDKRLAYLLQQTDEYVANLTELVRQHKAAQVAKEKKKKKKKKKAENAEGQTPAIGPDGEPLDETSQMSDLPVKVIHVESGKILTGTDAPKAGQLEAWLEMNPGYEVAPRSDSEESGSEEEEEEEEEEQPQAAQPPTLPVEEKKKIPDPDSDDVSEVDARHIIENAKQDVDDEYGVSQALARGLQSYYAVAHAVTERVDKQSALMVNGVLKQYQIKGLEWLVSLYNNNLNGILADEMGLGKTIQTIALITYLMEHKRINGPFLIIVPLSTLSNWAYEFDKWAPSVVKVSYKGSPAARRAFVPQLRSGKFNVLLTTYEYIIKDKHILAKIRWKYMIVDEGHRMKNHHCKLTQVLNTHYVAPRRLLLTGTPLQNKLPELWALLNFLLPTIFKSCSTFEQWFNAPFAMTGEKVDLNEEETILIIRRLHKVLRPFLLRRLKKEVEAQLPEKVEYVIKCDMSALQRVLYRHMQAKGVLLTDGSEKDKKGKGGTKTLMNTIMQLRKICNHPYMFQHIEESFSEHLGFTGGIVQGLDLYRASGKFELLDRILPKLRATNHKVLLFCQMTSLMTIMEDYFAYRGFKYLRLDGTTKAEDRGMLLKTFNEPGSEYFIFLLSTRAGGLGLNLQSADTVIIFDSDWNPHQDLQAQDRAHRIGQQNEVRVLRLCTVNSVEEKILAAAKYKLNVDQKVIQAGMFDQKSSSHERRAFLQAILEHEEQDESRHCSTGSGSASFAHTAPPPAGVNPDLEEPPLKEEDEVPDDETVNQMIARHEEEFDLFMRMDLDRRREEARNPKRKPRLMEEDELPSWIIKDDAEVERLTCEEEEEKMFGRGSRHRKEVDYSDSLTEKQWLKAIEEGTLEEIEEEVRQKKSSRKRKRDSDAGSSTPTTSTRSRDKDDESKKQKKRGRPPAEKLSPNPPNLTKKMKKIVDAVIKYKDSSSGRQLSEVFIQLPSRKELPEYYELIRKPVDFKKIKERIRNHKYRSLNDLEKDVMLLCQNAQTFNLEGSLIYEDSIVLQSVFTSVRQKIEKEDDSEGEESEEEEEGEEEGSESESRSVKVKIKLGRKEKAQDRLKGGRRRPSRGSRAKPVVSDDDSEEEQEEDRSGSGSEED
T2 sequence (P51531 whole entry): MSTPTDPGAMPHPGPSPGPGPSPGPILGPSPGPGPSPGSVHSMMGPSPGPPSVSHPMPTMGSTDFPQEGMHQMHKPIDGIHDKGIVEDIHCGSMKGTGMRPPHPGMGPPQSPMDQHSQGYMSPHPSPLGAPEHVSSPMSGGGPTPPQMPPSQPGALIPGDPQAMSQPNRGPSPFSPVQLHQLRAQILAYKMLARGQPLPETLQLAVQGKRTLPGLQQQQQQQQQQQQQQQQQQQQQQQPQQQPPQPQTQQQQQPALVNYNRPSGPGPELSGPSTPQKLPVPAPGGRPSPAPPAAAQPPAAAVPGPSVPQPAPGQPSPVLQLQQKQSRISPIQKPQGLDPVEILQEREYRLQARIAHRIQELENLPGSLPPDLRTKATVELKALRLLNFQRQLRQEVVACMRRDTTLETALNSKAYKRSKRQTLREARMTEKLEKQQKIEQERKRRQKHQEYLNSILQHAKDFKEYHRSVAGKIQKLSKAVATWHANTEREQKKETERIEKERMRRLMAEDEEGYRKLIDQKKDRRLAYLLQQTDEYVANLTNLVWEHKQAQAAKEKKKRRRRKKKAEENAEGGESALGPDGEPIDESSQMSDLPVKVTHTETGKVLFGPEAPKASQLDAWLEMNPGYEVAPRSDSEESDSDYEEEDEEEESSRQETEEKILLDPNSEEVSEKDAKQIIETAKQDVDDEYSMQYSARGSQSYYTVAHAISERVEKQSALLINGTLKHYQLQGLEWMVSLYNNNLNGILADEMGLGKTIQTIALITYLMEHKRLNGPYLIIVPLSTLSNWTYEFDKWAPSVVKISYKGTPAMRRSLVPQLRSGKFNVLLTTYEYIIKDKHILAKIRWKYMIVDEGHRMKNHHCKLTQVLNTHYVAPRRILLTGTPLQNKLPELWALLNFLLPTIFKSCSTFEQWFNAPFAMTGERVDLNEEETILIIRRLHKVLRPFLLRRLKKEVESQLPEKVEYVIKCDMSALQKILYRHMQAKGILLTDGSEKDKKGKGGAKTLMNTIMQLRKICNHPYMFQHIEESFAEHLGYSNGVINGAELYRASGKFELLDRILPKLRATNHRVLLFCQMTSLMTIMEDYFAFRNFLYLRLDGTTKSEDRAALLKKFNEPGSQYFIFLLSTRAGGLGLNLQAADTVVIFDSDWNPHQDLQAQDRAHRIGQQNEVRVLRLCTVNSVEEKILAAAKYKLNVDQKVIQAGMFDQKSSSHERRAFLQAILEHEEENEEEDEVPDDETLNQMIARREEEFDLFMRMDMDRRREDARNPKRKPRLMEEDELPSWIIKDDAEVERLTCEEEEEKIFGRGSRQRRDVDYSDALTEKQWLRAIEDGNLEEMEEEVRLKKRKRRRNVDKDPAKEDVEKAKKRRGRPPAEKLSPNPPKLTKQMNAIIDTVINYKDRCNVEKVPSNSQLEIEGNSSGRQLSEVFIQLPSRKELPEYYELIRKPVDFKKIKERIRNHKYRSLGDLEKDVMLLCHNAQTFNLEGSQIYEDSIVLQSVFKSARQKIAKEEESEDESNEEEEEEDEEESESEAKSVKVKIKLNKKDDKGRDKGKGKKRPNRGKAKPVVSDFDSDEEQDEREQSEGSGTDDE

In the case of Cc1ncsc1-c1ccc(CNC(=O)[C@@H]2C[C@@H](O)CN2C(=O)[C@@H](NC(=O)CCN2CCC(OC3CN(C(=O)c4ccc(CCOc5cc(-c6ccccc6O)nnc5N)cc4)C3)CC2)C(C)(C)C)cc1 [Compound 245, (2S,4R)-1-((S)-2-(3-(4-((1-(4-(2-((3-amino-6-(2-hydroxyphenyl)pyridazin-4-yl)oxy)ethyl)benzoyl)azetidin-3-yl)oxy)piperidin-1-yl)propanamido)-3,3-dimethylbutanoyl)-4-hydroxy-N-(4-(4-methylthiazol-5-yl)benzyl)pyrrolidine-2-carboxamide], the DC50 [1] is reported as over 1000 nM, the Dmax [1] is reported as under 50% and the “BRM HiBit Degradation Maximum (%)” value [2] is reported as “B (“B” indicates maximum degradation ≥50%)”. For the same compound, the DC50 [2] was over 1000 nM.
In the case of Cc1ncsc1-c1ccc([C@H](C)NC(=O)[C@@H]2C[C@@H](O)CN2C(=O)[C@@H](NC(=O)CCCCCCCCCCCCCC(=O)NCc2ccc(CCOc3cc(-c4ccccc4O)nnc3N)cc2)C(C)C)cc1 [Compound 246, N1-(4-(2-((3-amino-6-(2-hydroxyphenyl)pyridazin-4-yl)oxy)ethyl)benzyl)-N15-((S)-1-((2S,4R)-4-hydroxy-2-(((S)-1-(4-(4-methylthiazol-5-yl)phenyl)ethyl)carbamoyl)pyrrolidin-1-yl)-3-methyl-1-oxobutan-2-yl)pentadecanediamide], the DC50 [1] is reported as over 1000 nM, the Dmax [1] is reported as under 50% and the “BRM HiBit Degradation Maximum (%)” value [2] is reported as “A (“A” indicates maximum degradation ≥75%)”. It also gave a DC50 [2] of over 10 nM.
For Cc1ncsc1-c1ccc([C@H](C)NC(=O)[C@@H]2C[C@@H](O)CN2C(=O)[C@@H](NC(=O)CCCCCCCCCCC(=O)NCc2ccc(CCOc3cc(-c4ccccc4O)nnc3N)cc2)C(C)(C)C)cc1 [Compound 247, N1-(4-(2-((3-amino-6-(2-hydroxyphenyl)pyridazin-4-yl)oxy)ethyl)benzyl)-N12-((S)-1-((2S,4R)-4-hydroxy-2-(((S)-1-(4-(4-methylthiazol-5-yl)phenyl)ethyl)carbamoyl)pyrrolidin-1-yl)-3,3-dimethyl-1-oxobutan-2-yl)dodecanediamide], the DC50 [1] was over 1000 nM, the Dmax [1] was under 50% and the “BRM HiBit Degradation Maximum (%)” value [2] was “A (“A” indicates maximum degradation ≥75%)”. The DC50 [2] was over 10 nM.
In the case of Cc1ncsc1-c1ccc([C@H](C)NC(=O)[C@@H]2C[C@@H](O)CN2C(=O)[C@@H](NC(=O)CCCCCCCCCCCCC(=O)NCc2ccc(CCOc3cc(-c4ccccc4O)nnc3N)cc2)C(C)(C)C)cc1 [Compound 248, N1-(4-(2-((3-amino-6-(2-hydroxyphenyl)pyridazin-4-yl)oxy)ethyl)benzyl)-N14-((S)-1-((2S,4R)-4-hydroxy-2-(((S)-1-(4-(4-methylthiazol-5-yl)phenyl)ethyl)carbamoyl)pyrrolidin-1-yl)-3,3-dimethyl-1-oxobutan-2-yl)tetradecanediamide], the DC50 [1] is reported as over 1000 nM, the Dmax [1] is reported as under 50% and the “BRM HiBit Degradation Maximum (%)” value [2] is reported as “A (“A” indicates maximum degradation ≥75%)”. For the same compound, the DC50 [2] was over 10 nM.
In the case of Cc1ncsc1-c1ccc([C@H](C)NC(=O)[C@@H]2C[C@@H](O)CN2C(=O)[C@@H](NC(=O)CCN2CCC(OC3CCN(CCC(=O)NCc4ccc(CCOc5cc(-c6ccccc6O)nnc5N)cc4)CC3)CC2)C(C)(C)C)cc1 [Compound 249, (2S,4R)-1-((S)-2-(3-(4-((1-(3-((4-(2-((3-amino-6-(2-hydroxyphenyl)pyridazin-4-yl)oxy)ethyl)benzyl)amino)-3-oxopropyl)piperidin-4-yl)oxy)piperidin-1-yl)propanamido)-3,3-dimethylbutanoyl)-4-hydroxy-N-((S)-1-(4-(4-methylthiazol-5-yl)phenyl)ethyl)pyrrolidine-2-carboxamide], the DC50 [1] is reported as over 1000 nM, the Dmax [1] is reported as under 50% and the “BRM HiBit Degradation Maximum (%)” value [2] is reported as “A (“A” indicates maximum degradation ≥75%)”. For the same compound, the DC50 [2] was over 1000 nM.
For Cc1ncsc1-c1ccc([C@H](C)NC(=O)[C@@H]2C[C@@H](O)CN2C(=O)[C@@H](NC(=O)CCN2CCC3(CCN(CCC(=O)NCc4ccc(CCOc5cc(-c6ccccc6O)nnc5N)cc4)CC3)CC2)C(C)(C)C)cc1 [Compound 250, (2S,4R)-1-((S)-2-(3-(9-(3-((4-(2-((3-amino-6-(2-hydroxyphenyl)pyridazin-4-yl)oxy)ethyl)benzyl)amino)-3-oxopropyl)-3,9-diazaspiro[5.5]undecan-3-yl)propanamido)-3,3-dimethylbutanoyl)-4-hydroxy-N-((S)-1-(4-(4-methylthiazol-5-yl)phenyl)ethyl)pyrrolidine-2-carboxamide], the DC50 [1] was over 1000 nM, the Dmax [1] was under 50% and the “BRM HiBit Degradation Maximum (%)” value [2] was “B (“B” indicates maximum degradation ≥50%)”. For the same compound, the DC50 [2] was over 1000 nM.
Cc1ncsc1-c1ccc([C@H](C)NC(=O)[C@@H]2C[C@@H](O)CN2C(=O)[C@@H](c2cc(OCCN(C)Cc3ccc(CCOc4cc(-c5ccccc5O)nnc4N)cc3)no2)C(C)C)cc1 [Compound 251, (2S,4R)-1-((R)-2-(3-(2-((4-(2-((3-amino-6-(2-hydroxyphenyl)pyridazin-4-yl)oxy)ethyl)benzyl)(methyl)amino)ethoxy)isoxazol-5-yl)-3-methylbutanoyl)-4-hydroxy-N-((S)-1-(4-(4-methylthiazol-5-yl)phenyl)ethyl)pyrrolidine-2-carboxamide] was tested, and the DC50 [1] was under 10 nM, the Dmax [1] was over 75% and the “BRM HiBit Degradation Maximum (%)” value [2] was “A (“A” indicates maximum degradation ≥75%)”. It also gave a DC50 [2] of under 10 nM.
Cc1ncsc1-c1ccc(CNC(=O)[C@@H]2C[C@@H](O)CN2C(=O)[C@@H](NC(=O)CCN2CCC3(CCN(CCC(=O)NCc4ccc(CCOc5cc(-c6ccccc6O)nnc5N)cc4)CC3)CC2)C(C)(C)C)cc1 [Compound 252, (2S,4R)-1-((S)-2-(3-(9-(3-((4-(2-((3-amino-6-(2-hydroxyphenyl)pyridazin-4-yl)oxy)ethyl)benzyl)amino)-3-oxopropyl)-3,9-diazaspiro[5.5]undecan-3-yl)propanamido)-3,3-dimethylbutanoyl)-4-hydroxy-N-(4-(4-methylthiazol-5-yl)benzyl)pyrrolidine-2-carboxamide] was tested, and the DC50 [1] was over 1000 nM, the Dmax [1] was under 50% and the “BRM HiBit Degradation Maximum (%)” value [2] was “C (“C” indicates maximum degradation <50%)”. It also gave a DC50 [2] of over 1000 nM.
For Cc1ncsc1-c1ccc([C@H](C)NC(=O)[C@@H]2C[C@@H](O)CN2C(=O)[C@@H](c2cc(OCCN3CCC(OC4CN(C(=O)c5ccc(CCOc6cc(-c7ccccc7O)nnc6N)cc5)C4)CC3)no2)C(C)C)cc1 [Compound 253, (2S,4R)-1-((R)-2-(3-(2-(4-((1-(4-(2-((3-amino-6-(2-hydroxyphenyl)pyridazin-4-yl)oxy)ethyl)benzoyl)azetidin-3-yl)oxy)piperidin-1-yl)ethoxy)isoxazol-5-yl)-3-methylbutanoyl)-4-hydroxy-N-((S)-1-(4-(4-methylthiazol-5-yl)phenyl)ethyl)pyrrolidine-2-carboxamide], the DC50 [1] was over 1000 nM, the Dmax [1] was under 50% and the “BRM HiBit Degradation Maximum (%)” value [2] was “A (“A” indicates maximum degradation ≥75%)”. For the same compound, the DC50 [2] was under 10 nM.
With Cc1ncsc1-c1ccc([C@H](C)NC(=O)[C@@H]2C[C@@H](O)CN2C(=O)[C@@H](NC(=O)CCCCCCCCCCCCCCNC(=O)c2ccc(CCOc3cc(-c4ccccc4O)nnc3N)cc2)C(C)(C)C)cc1 [Compound 254, (2S,4R)-1-((S)-2-(15-(4-(2-((3-amino-6-(2-hydroxyphenyl)pyridazin-4-yl)oxy)ethyl)benzamido)pentadecanamido)-3,3-dimethylbutanoyl)-4-hydroxy-N-((S)-1-(4-(4-methylthiazol-5-yl)phenyl)ethyl)pyrrolidine-2-carboxamide] the DC50 [1] was over 1000 nM, the Dmax [1] was under 50% and the “BRM HiBit Degradation Maximum (%)” value [2] was “B (“B” indicates maximum degradation ≥50%)”. The DC50 [2] was over 10 nM.
Cc1ncsc1-c1ccc([C@H](C)NC(=O)[C@@H]2C[C@@H](O)CN2C(=O)[C@@H](NC(=O)CCCCCCCCCCCCCC(=O)NCc2ccc(CCN(C)c3cc(-c4ccccc4O)nnc3N)cc2)C(C)(C)C)cc1 [Compound 255, N1-(4-(2-((3-amino-6-(2-hydroxyphenyl)pyridazin-4-yl)(methyl)amino)ethyl)benzyl)-N15-((S)-1-((2S,4R)-4-hydroxy-2-(((S)-1-(4-(4-methylthiazol-5-yl)phenyl)ethyl)carbamoyl)pyrrolidin-1-yl)-3,3-dimethyl-1-oxobutan-2-yl)pentadecanediamide] was tested, and the DC50 [1] was over 1000 nM, the Dmax [1] was under 50% and the “BRM HiBit Degradation Maximum (%)” value [2] was “A (“A” indicates maximum degradation ≥75%)”. It also gave a DC50 [2] of over 10 nM.
With Cc1ncsc1-c1ccc([C@H](C)NC(=O)[C@@H]2C[C@@H](O)CN2C(=O)[C@@H](NC(=O)CCNCCCCCCCCCCC(=O)NCc2ccc(CCOc3cc(-c4ccccc4O)nnc3N)cc2)C(C)(C)C)cc1 [Compound 256, (2S,4R)-1-((S)-2-(3-((11-((4-(2-((3-amino-6-(2-hydroxyphenyl)pyridazin-4-yl)oxy)ethyl)benzyl)amino)-11-oxoundecyl)amino)propanamido)-3,3-dimethylbutanoyl)-4-hydroxy-N-((S)-1-(4-(4-methylthiazol-5-yl)phenyl)ethyl)pyrrolidine-2-carboxamide] the DC50 [1] was over 1000 nM, the Dmax [1] was under 50% and the “BRM HiBit Degradation Maximum (%)” value [2] was “C (“C” indicates maximum degradation <50%)”. It also gave a DC50 [2] of over 1000 nM.
With Cc1ncsc1-c1ccc([C@H](C)NC(=O)[C@@H]2C[C@@H](O)CN2C(=O)[C@@H](NC(=O)CCCCCCCCC(=O)NCc2ccc(CCOc3cc(-c4ccccc4O)nnc3N)cc2)C(C)(C)C)cc1 [Compound 257, N1-(4-(2-((3-amino-6-(2-hydroxyphenyl)pyridazin-4-yl)oxy)ethyl)benzyl)-N10-((S)-1-((2S,4R)-4-hydroxy-2-(((S)-1-(4-(4-methylthiazol-5-yl)phenyl)ethyl)carbamoyl)pyrrolidin-1-yl)-3,3-dimethyl-1-oxobutan-2-yl)decanediamide] the DC50 [1] was over 1000 nM, the Dmax [1] was under 50% and the “BRM HiBit Degradation Maximum (%)” value [2] was “A (“A” indicates maximum degradation ≥75%)”. It also gave a DC50 [2] of over 10 nM.

Reference: patent US20230150974A1 (Foghorn Therapeutics Inc., priority 2020, published 2023)
